Test results: patent US5849737A, “Compositions and methods for treating pain” (priority 1995, dated 1998)
Entries after “also recorded” stand apart in the source; their conditions may differ. Like-named read-outs stand apart in the source and are kept apart here.

Key:
[1] = tested on: tactile allodynia (paw withdrawal thresholds); assay: Tactile allodynia (50% paw withdrawal threshold, von Frey) after intrathecal drug, L5/L6 spinal nerve ligated rats; type: in vivo, Male Harlan Sprague-Dawley rats; conditions: IT; lidocaine 500 μg, MEGX 500 μg, 3-OH L 58 μg
Description: (§1) Male Harlan Sprague-Dawley rats were used (100-200 g). Rats were housed 2-3 to a cage with corn cob bedding and Purina rat chow and water ad libitum, in a standard facility with a 12 h/ 12 h day/night cycle. After surgical procedures involving chronic indwelling catheter insertion, animals were housed singly to prevent catheter damage.
Rats were allowed to recover 5-7 days before further testing or surgeries.
(§2) The catheters were 9 cm in intrathecal length and terminated near the lumbar enlargement. The rostral 3 cm of catheter was tunneled under the skin to externalize between the ears. Rats with neurologic deficits were discarded.
(§3) Monoethylglycinexylidide (MEGX) was dissolved in physiologic saline; 3-hydroxylidocaine (3-OH L) was dissolved in DMSO for intravenous administration.
Intravenous drugs were delivered to awake, unrestrained rats by slow infusion using a syringe pump (Harvard apparatus 22). Intrathecal drugs were delivered to awake, briefly restrained rats in a volume of 10 μl, followed by 10 μl of vehicle flush, using a calibrated tubing extension with a 30-gauge adapter fitting the implanted intrathecal catheter, attached to a geared Hamilton 100 μl glass syringe. IT drug delivery was monitored by observing the advancement of a small air bubble down the tubing.
Rats were placed in a plastic cage with an open wire mesh bottom and allowed to accommodate for approximately fifteen minutes. […] In brief, von Frey hairs were sequentially applied using an up-and-down paradigm to the left mid-plantar hindpaw with sufficient force to cause slight filament buckling. Positive responses were noted if the paw was sharply withdrawn. […] Otherwise, PWT were calculated by noting the stimulus level at which the first change in behavior occurred, collecting four additional responses to the continued up-and-down oscillation of stimulus presentation around the response threshold, and interpolating the 50% response threshold. […] The following equation was used to compute %MPE: [formula]
(§4) Plasma drug levels and PWT were correlated using linear regression. Serially measured PWT and %MPE were compared using repeated measures ANOVA.

[2] = tested on: P45ONF(human) (P-450 PB-1(rat)(IIIA4) enzyme); conditions: lidocaine metabolite formation; cited from earlier work
[3] = tested on: tactile allodynia (paw withdrawal thresholds); assay: Tactile allodynia (50% paw withdrawal threshold, von Frey) after intravenous drug, L5/L6 spinal nerve ligated rats; type: in vivo, Male Harlan Sprague-Dawley rats
Source text: For intravascular access, external jugular catheters were fashioned from PE-50 tubing and inserted into an external jugular vein under halothane/oxygen anesthesia. Arterial catheters were also fashioned from PE-50 with a small bouton 1 cm from the intravascular end for suture securing; they were inserted into a carotid artery, taking care to spare the surrounding nerves. All catheters were flushed with heparinized saline (10 U/ml) and tunneled subcutaneously to emerge at the posterior base of the neck, and capped when not in use. […] Rats were placed in a plastic cage with an open wire mesh bottom and allowed to accommodate for approximately fifteen minutes. A series of 8 von Frey filaments with logarithmically incremental stiffness (0.41, 0.70, 1.20, 2.00, 3.63, 5.50, 8.50, and 15.10 g) (Stoelting, Wood Dale, Ill.) was used to determine the 50% threshold for paw withdrawal to light mechanical stimuli (PWT). In brief, von Frey hairs were sequentially applied using an up-and-down paradigm to the left mid-plantar hindpaw with sufficient force to cause slight filament buckling. Positive responses were noted if the paw was sharply withdrawn. […] Otherwise, PWT were calculated by noting the stimulus level at which the first change in behavior occurred, collecting four additional responses to the continued up-and-down oscillation of stimulus presentation around the response threshold, and interpolating the 50% response threshold. […] The following equation was used to compute %MPE: [formula] Plasma drug levels and PWT were correlated using linear regression. Serially measured PWT and %MPE were compared using repeated measures ANOVA.

[4] = Toxicity and plasma bupivacaine levels on intravenous infusion (GC assay); type: in vivo, Male Harlan Sprague-Dawley rats
Source text: For intravascular access, external jugular catheters were fashioned from PE-50 tubing and inserted into an external jugular vein under halothane/oxygen anesthesia. Arterial catheters were also fashioned from PE-50 with a small bouton 1 cm from the intravascular end for suture securing; they were inserted into a carotid artery, taking care to spare the surrounding nerves. All catheters were flushed with heparinized saline (10 U/ml) and tunneled subcutaneously to emerge at the posterior base of the neck, and capped when not in use.
For bupivacaine assays, samples were obtained by withdrawing and discarding approximately 0.3 cc of blood from arterial cannulae, and then withdrawing samples of approximately 0.5 cc volume. These samples were centrifuged and the plasma supernatant was frozen at -20° C. until analysis. […]
Bupivacaine was quantitated by capillary GC with nitrogen-phosphorus detection [Bjork M et al., Journal of Chromatography 533:229-234 (1990)]. […] Split injections (1.5:1) were performed with a Hewlett Packard 7673A automatic sampler, and the chromatograms were recorded and analyzed with H-P Chemstation (MSDOS) software. […]
as §4

dorsal root ganglion = conditions: intravenous, whole animals; cited from earlier work
[5] = tested on: wide dynamic range neurons; conditions: IV, 3-4 mg/kg, rat; cited from earlier work
neuromata = conditions: intravenous, whole animals; cited from earlier work
[6] = DA rats; some species of rats; cited from earlier work
[7] = tested on: tactile allodynia (paw withdrawal thresholds); conditions: after termination of motor block [Chaplan et al. (1993)]; cited from earlier work
[8] = tested on: sural nerve evoked after discharges; conditions: IV, 1 mg/kg; cited from earlier work
[9] = tested on: painful diabetic neuropathy; conditions: cited from earlier work; for clinical effect in painful diabetic neuropathy: lidocaine intravenous, mexiletine oral
[10] = tested on: tactile allodynia (paw withdrawal thresholds); assay: Mechanical allodynia after single i.p. dose in DA rats (left L5/L6 spinal nerve ligation); type: in vivo; conditions: for effect on tactile allodynia, DA rats: single i.p. dose, lidocaine 60 mg/kg, 3-OHL 15 mg/kg (P<0.002)
[11] = tested on: peripheral nerve injury pain; conditions: lidocaine intravenous; mexiletine oral; cited from earlier work
[12] = tested on: polysynaptic C-fiber evoked flexor responses; conditions: IV, 1-5 mg/kg, cited from earlier work
[13] = tested on: tactile allodynia (paw withdrawal thresholds); conditions: IV systemic lidocaine, cited from earlier work
[14] = tested on: acutely injured peripheral terminals; conditions: in vitro, protein-free system; cited from earlier work
[15] = tested on: tactile allodynia (paw withdrawal thresholds); assay: Mechanical allodynia after single i.p. dose in SD rats (left L5/L6 spinal nerve ligation); type: in vivo
motor function = assay: Motor and behavioral effects after intrathecal administration
Description: as §1
To induce neuropathy, rats were anesthetized with halothane/oxygen, and the left L5/L6 spinal nerves were exposed via a dorsal midline incision and ligated tightly with 6-0 silk suture according to the reported method [Kim S H et al., Pain 50:355-363 (1992)]. Rats were allowed to recover 5-7 days before further testing or surgeries.
as §2, with “Intrathecal PE-10 catheters were implanted under halothane/oxygen anesthesia [Yaksh T L et al., Physiol Behav 17:1031-1036 (1976)]. The catheters” for “The catheters”
as §3
Intravenous drugs were delivered to awake, unrestrained rats by slow infusion using a syringe pump (Harvard apparatus 22). […] IT drug delivery was monitored by observing the advancement of a small air bubble down the tubing.

[16] = tested on: centrally organized nociceptive flexion response; conditions: painful diabetic neuropathy; cited from earlier work
neuropathic pain states = conditions: orally available lidocaine congeners; systemically administered local anesthetics; cited from earlier work
trigeminal neuralgia = conditions: oral; cited from earlier work

In the case of `CCNCC(=O)Nc1c(C)cccc1C` [MEGX, Monoethylglycinexylidide], the “effect on allodynia thresholds after IT delivery” value [1] is listed as “not MEGX, suppressed allodynia; also recorded: no effect on PWT at this limiting dose”, the “enzyme producing the metabolite MEGX” value [2] is listed as “produced by the P45ONF(human) (P-450 PB-1(rat)(IIIA4) enzyme” and the “allodynia suppression by IV MEGX” value ([3]; 20 mg/kg, infused over 60 minutes) is listed as “completely devoid of anti-allodynia activity by the intravenous route; also recorded: no effect whatsoever”. For the same compound, the PWT post infusion ([3]; MEGX 20 mg/kg IV infused over 60 minutes, baseline 1.7±0.6 g) was 1.96 ± 0.4 g.
With `CCCCN1CCCCC1C(=O)Nc1c(C)cccc1C` (centres unmarked) [bupivacaine] the “toxicity on intravenous infusion” value ([4]; IV infusion) was “ataxia and lethargy; also recorded: Higher doses resulted in seizure”, the “mean plasma level at higher doses that resulted in seizure” value ([4]; IV, N=4, unit not given) was 7.4±0.7 and the “effect of intravenous infusion on allodynia” value ([3]; IV infusion, up to plasma concentrations which caused evident toxicity, 15 samples from 4 rats, P=0.11, linear regression) was “inactive against allodynia; also recorded: no effect on allodynia”. For the same compound, the “correlation of plasma bupivacaine levels with %MPE (allodynia suppression)” value ([3]; IV, 4 rats, 15 samples, plasma levels up to toxic range (FIG. 1)) was “lack of correlation”.
In the case of `CCN(CC)CC(=O)Nc1c(C)cccc1C` [lidocaine], the “ED50 for discharge suppression, dorsal root ganglion” value (dorsal root ganglion) is given as 1 mg/kg, the “effect on wide dynamic range neuron activity” value [5] is given as “selectively suppresses the increased wide dynamic range neuronal activity seen ipsilateral to chronic peripheral nerve injury; also recorded: suppresses noxious-evoked activity in wide dynamic range neurons in the rat” and the “ED50 for discharge suppression in neuromata” value (neuromata) is given as 6 mg/kg. For the same compound, the “effect on allodynia thresholds after IT delivery” value [1] was “no effect on allodynia was seen”, the “3-hydroxylation / production of 3-OH L in rats” value [6] was “lack of 3-hydroxylation in this strain” and the “anti-allodynic effect, IT / regional route (earlier report)” value [7] was “no anti-allodynic effect after termination of motor block”. The “suppression of sural nerve evoked after discharges” value [8] was “suppression of polysynaptic (spinal cord) sural nerve evoked after discharges”, the thermal thresholds ([9]; intravenous lidocaine, painful diabetic neuropathy) was “without alteration in thermal thresholds” and the “clinical effect in painful diabetic neuropathy” value [9] was “reduced pain scores for several days”. The “time of transient effect, DA rats” value ([10]; lidocaine 60 mg/kg i.p.) was 30 min, the “effect on tactile allodynia, DA rats” value [10] was “not effective in this regard in DA rats; also recorded: no sustained effect of lidocaine in DA rats” and the “effect on tactile allodynia, DA rats” value ([10]; listed as Lidocaine) was “no sustained effect whatsoever”. For the same compound, the “clinical effect in peripheral nerve injury pain” value [11] was “decreases in spontaneous pain, albeit of short duration”, the “conduction block at the peripheral terminal” value [12] was “without evidence of conduction block at the peripheral terminal” and the “effect on polysynaptic C-fiber evoked flexor responses” value ([12]; mustard oil and noxious heat) was “suppresses polysynaptic C-fiber evoked flexor responses to mustard oil and noxious heat”. For the same compound, the “effect on allodynia, intravenous route (earlier reports)” value ([13]; listed as Lidocaine) was “effective against allodynia by the intravenous”, the “effect on allodynia, intravenous route (earlier reports)” value [13] was “long lasting effect by the IV route” and the “ED50, suppression of spontaneous activity” value [14] was 5.7 µg/mL. The “duration of tactile allodynia alleviation, SD rats” value ([15]; lidocaine 60 mg/kg i.p. single dose, N=6, strain difference P<0.002) was “more than 16 days”, the “effect on tactile allodynia, SD rats” value ([15]; single i.p. dose, lidocaine 60 mg/kg, 3-OHL 15 mg/kg (P<0.05)) was “sustained effect on tactile allodynia in SD rats; also recorded: persistent effects of lidocaine against allodynia” and the “duration of motor dysfunction after IT delivery” value (motor function; 500 μg) was “approximately 10 minutes”. For the same compound, the “motor effects after IT delivery” value (motor function; lidocaine 500 μg, MEGX 500 μg, 3-OH L 58 μg) was “acute onset of hindquarter flaccidity” and the nociceptive flexion response [16] was “suppression of the centrally organized nociceptive flexion response”.
In the case of `Cc1cccc(C)c1OCC(C)N` (centres unmarked) [mexiletine], the “clinical efficacy in neuropathic pain states” value (neuropathic pain states) is listed as “far from universally effective”, the “tolerability in neuropathic pain states” value (neuropathic pain states) is listed as “in many cases are poorly tolerated due to side effects, including some which may be life-threatening” and the “clinical effect in painful diabetic neuropathy” value [9] is listed as “analgesic effects”. The “clinical effect in peripheral nerve injury pain” value [11] was “analgesic effects”.
For `Cc1cccc(C)c1NC(=O)C(C)N` (centres unmarked) [tocainide], the “clinical efficacy in neuropathic pain states” value (neuropathic pain states) is listed as “far from universally effective”, the “tolerability in neuropathic pain states” value (neuropathic pain states) is listed as “in many cases are poorly tolerated due to side effects, including some which may be life-threatening” and the “clinical effect in trigeminal neuralgia” value (trigeminal neuralgia) is listed as “analgesic effects”.
